{"source": "the NIST ThermoML archive (doi:10.1007/s10765-006-0079-5)", "settings": "Liquid, Pulse-echo method", "note": "Numbers after ± are expanded uncertainties.", "data": [{"smiles": "CCCCCCCCC", "note": "[nonane]", "values": [{"measurement": "speed of sound", "setting": "293.15 K, 100 kPa", "result": "1226.4 ± 5", "unit": "m/s"}, {"measurement": "speed of sound", "setting": "293.15 K, 10000 kPa", "result": "1288 ± 5.2", "unit": "m/s"}, {"measurement": "speed of sound", "setting": "293.15 K, 20000 kPa", "result": "1344.8 ± 5.4", "unit": "m/s"}, {"measurement": "speed of sound", "setting": "293.15 K, 30000 kPa", "result": "1396.9 ± 5.6", "unit": "m/s"}, {"measurement": "speed of sound", "setting": "293.15 K, 40000 kPa", "result": "1445.1 ± 5.8", "unit": "m/s"}, {"measurement": "speed of sound", "setting": "293.15 K, 50000 kPa", "result": "1490.1 ± 6", "unit": "m/s"}, {"measurement": "speed of sound", "setting": "293.15 K, 60000 kPa", "result": "1532.5 ± 6.2", "unit": "m/s"}, {"measurement": "speed of sound", "setting": "293.15 K, 70000 kPa", "result": "1572.5 ± 6.4", "unit": "m/s"}, {"measurement": "speed of sound", "setting": "293.15 K, 80000 kPa", "result": "1610.6 ± 6.5", "unit": "m/s"}, {"measurement": "speed of sound", "setting": "293.15 K, 90000 kPa", "result": "1646.9 ± 6.7", "unit": "m/s"}, {"measurement": "speed of sound", "setting": "293.15 K, 100000 kPa", "result": "1681.6 ± 6.8", "unit": "m/s"}, {"measurement": "speed of sound", "setting": "313.15 K, 100 kPa", "result": "1146.2 ± 4.7", "unit": "m/s"}, {"measurement": "speed of sound", "setting": "313.15 K, 10000 kPa", "result": "1212.8 ± 4.9", "unit": "m/s"}, {"measurement": "speed of sound", "setting": "313.15 K, 20000 kPa", "result": "1274.2 ± 5.2", "unit": "m/s"}, {"measurement": "speed of sound", "setting": "313.15 K, 30000 kPa", "result": "1329.8 ± 5.4", "unit": "m/s"}, {"measurement": "speed of sound", "setting": "313.15 K, 40000 kPa", "result": "1380.9 ± 5.6", "unit": "m/s"}, {"measurement": "speed of sound", "setting": "313.15 K, 50000 kPa", "result": "1428.3 ± 5.8", "unit": "m/s"}, {"measurement": "speed of sound", "setting": "313.15 K, 60000 kPa", "result": "1472.7 ± 6", "unit": "m/s"}, {"measurement": "speed of sound", "setting": "313.15 K, 70000 kPa", "result": "1514.7 ± 6.1", "unit": "m/s"}, {"measurement": "speed of sound", "setting": "313.15 K, 80000 kPa", "result": "1554.4 ± 6.3", "unit": "m/s"}, {"measurement": "speed of sound", "setting": "313.15 K, 90000 kPa", "result": "1592 ± 6.4", "unit": "m/s"}, {"measurement": "speed of sound", "setting": "313.15 K, 100000 kPa", "result": "1628 ± 6.6", "unit": "m/s"}, {"measurement": "speed of sound", "setting": "333.15 K, 100 kPa", "result": "1068.2 ± 4.3", "unit": "m/s"}, {"measurement": "speed of sound", "setting": "333.15 K, 10000 kPa", "result": "1140.9 ± 4.6", "unit": "m/s"}, {"measurement": "speed of sound", "setting": "333.15 K, 20000 kPa", "result": "1206.9 ± 4.9", "unit": "m/s"}, {"measurement": "speed of sound", "setting": "333.15 K, 30000 kPa", "result": "1266.2 ± 5.1", "unit": "m/s"}, {"measurement": "speed of sound", "setting": "333.15 K, 50000 kPa", "result": "1369.8 ± 5.5", "unit": "m/s"}, {"measurement": "speed of sound", "setting": "333.15 K, 60000 kPa", "result": "1416.3 ± 5.7", "unit": "m/s"}, {"measurement": "speed of sound", "setting": "333.15 K, 70000 kPa", "result": "1460.1 ± 5.9", "unit": "m/s"}, {"measurement": "speed of sound", "setting": "333.15 K, 80000 kPa", "result": "1501.3 ± 6.1", "unit": "m/s"}, {"measurement": "speed of sound", "setting": "333.15 K, 90000 kPa", "result": "1540.3 ± 6.2", "unit": "m/s"}, {"measurement": "speed of sound", "setting": "333.15 K, 100000 kPa", "result": "1577.4 ± 6.4", "unit": "m/s"}, {"measurement": "speed of sound", "setting": "353.15 K, 100 kPa", "result": "992.62 ± 4", "unit": "m/s"}, {"measurement": "speed of sound", "setting": "353.15 K, 10000 kPa", "result": "1072.6 ± 4.4", "unit": "m/s"}, {"measurement": "speed of sound", "setting": "353.15 K, 20000 kPa", "result": "1142.6 ± 4.6", "unit": "m/s"}, {"measurement": "speed of sound", "setting": "353.15 K, 30000 kPa", "result": "1205.6 ± 4.9", "unit": "m/s"}, {"measurement": "speed of sound", "setting": "353.15 K, 40000 kPa", "result": "1262.5 ± 5.1", "unit": "m/s"}, {"measurement": "speed of sound", "setting": "353.15 K, 50000 kPa", "result": "1314.6 ± 5.3", "unit": "m/s"}, {"measurement": "speed of sound", "setting": "353.15 K, 60000 kPa", "result": "1363.2 ± 5.5", "unit": "m/s"}, {"measurement": "speed of sound", "setting": "353.15 K, 70000 kPa", "result": "1408.5 ± 5.7", "unit": "m/s"}, {"measurement": "speed of sound", "setting": "353.15 K, 80000 kPa", "result": "1451.3 ± 5.9", "unit": "m/s"}, {"measurement": "speed of sound", "setting": "353.15 K, 90000 kPa", "result": "1491.7 ± 6", "unit": "m/s"}, {"measurement": "speed of sound", "setting": "353.15 K, 100000 kPa", "result": "1529.8 ± 6.2", "unit": "m/s"}, {"measurement": "speed of sound", "setting": "373.15 K, 100 kPa", "result": "922.16 ± 3.8", "unit": "m/s"}, {"measurement": "speed of sound", "setting": "373.15 K, 10000 kPa", "result": "1005 ± 4.1", "unit": "m/s"}, {"measurement": "speed of sound", "setting": "373.15 K, 20000 kPa", "result": "1081.3 ± 4.4", "unit": "m/s"}, {"measurement": "speed of sound", "setting": "373.15 K, 30000 kPa", "result": "1148.1 ± 4.7", "unit": "m/s"}, {"measurement": "speed of sound", "setting": "373.15 K, 40000 kPa", "result": "1208 ± 4.9", "unit": "m/s"}, {"measurement": "speed of sound", "setting": "373.15 K, 50000 kPa", "result": "1262.5 ± 5.1", "unit": "m/s"}, {"measurement": "speed of sound", "setting": "373.15 K, 60000 kPa", "result": "1313.1 ± 5.3", "unit": "m/s"}, {"measurement": "speed of sound", "setting": "373.15 K, 70000 kPa", "result": "1360.1 ± 5.5", "unit": "m/s"}, {"measurement": "speed of sound", "setting": "373.15 K, 80000 kPa", "result": "1404.3 ± 5.7", "unit": "m/s"}, {"measurement": "speed of sound", "setting": "373.15 K, 90000 kPa", "result": "1446.1 ± 5.8", "unit": "m/s"}, {"measurement": "speed of sound", "setting": "373.15 K, 100000 kPa", "result": "1485.5 ± 6", "unit": "m/s"}, {"measurement": "speed of sound", "setting": "393.15 K, 10000 kPa", "result": "946.87 ± 3.9", "unit": "m/s"}, {"measurement": "speed of sound", "setting": "393.15 K, 20000 kPa", "result": "1022.9 ± 4.2", "unit": "m/s"}, {"measurement": "speed of sound", "setting": "393.15 K, 30000 kPa", "result": "1093.7 ± 4.4", "unit": "m/s"}, {"measurement": "speed of sound", "setting": "393.15 K, 40000 kPa", "result": "1156.6 ± 4.7", "unit": "m/s"}, {"measurement": "speed of sound", "setting": "393.15 K, 50000 kPa", "result": "1213.6 ± 4.9", "unit": "m/s"}, {"measurement": "speed of sound", "setting": "393.15 K, 60000 kPa", "result": "1266.1 ± 5.1", "unit": "m/s"}, {"measurement": "speed of sound", "setting": "393.15 K, 70000 kPa", "result": "1314.7 ± 5.3", "unit": "m/s"}, {"measurement": "speed of sound", "setting": "393.15 K, 80000 kPa", "result": "1360.4 ± 5.5", "unit": "m/s"}, {"measurement": "speed of sound", "setting": "393.15 K, 90000 kPa", "result": "1403.3 ± 5.7", "unit": "m/s"}, {"measurement": "speed of sound", "setting": "393.15 K, 100000 kPa", "result": "1443.7 ± 5.8", "unit": "m/s"}]}]}
